Data set [1] has as its system HepG2 human cancer-cell line. As to the kind of experiment: MTT antiproliferative assay, HepG2. Format: cell-based. The protocol:
(§1) Selected compounds were evaluated in vitro for their antiproliferative activities against HepG2 and MCF-7 human cancer-cell lines using MTT assays. Cell viabilities and IC50 values were obtained and compared with those of the control, doxorubicin (Table 1).
(§2) The antiproliferative activity of the test compounds against HepG2, and MCF-7 human cancer-cell lines were evaluated by MTT assay. The detailed methodology procedure was reported. […]

The subject of data set [2] is MCF-7 human cancer-cell line. As to the kind of experiment: MTT antiproliferative assay, MCF-7. Type of data set: cell-based. Here is the method: as §1, §2
For orientation: Tetrazolium dyes change colour on reduction, which living cells bring about.

[3] abbreviates: MTT, 48 h of exposure, read-out: IC50 (μM) ± SD HepG2.
Setting [4] is: Table S5, read-out: pIC50(exp) HepG2 (converted).
[5] abbreviates: MCF7, MTT, 48 h of exposure, read-out: IC50 (μM) ± SD MCF-7.
Where [6] appears, read: MCF7, Table S5, read-out: pIC50 (exp) MCF7 (converted).

Like-named read-outs stand apart in the source and are kept apart here.

`Cn1c(=S)[nH]c2cc3ccccc3cc2c1=O` [Compound 1, 3-Methyl-2-thioxo-2,3-dihydrobenzo[g]quinazolin-4(1H)-one]: the IC50 was 40.4 ± 4.1 µM in data set [1] (setting [3]), 40.4 µM in data set [1] (setting [4]), 10.7 ± 1.1 µM in data set [2] (setting [5]) and 10.7 µM in data set [2] (setting [6]).
Consider `CCn1c(=S)[nH]c2cc3ccccc3cc2c1=O` [Compound 2, 3-Ethyl-2-thioxo-2,3-dihydrobenzo[g]quinazolin-4(1H)-one], for which the IC50 in data set [1] (setting [3]) was 36.1 ± 3.6 µM; in data set [1] (setting [4]), 36.1 µM; in data set [2] (setting [5]) it was 10.5 ± 0.5 µM; in data set [2] (setting [6]) it was 10.5 µM.
Broadly, the melting point is the temperature of the solid-liquid transition. In turn, `CCSc1nc2cc3ccccc3cc2c(=O)n1C` [Compound 3, 2-(Ethylthio)-3-methylbenzo[g]quinazolin-4(3H)-one] registered a melting point of 115 to 117 °C. In data set [1] (setting [3]), the IC50 was 29.9 ± 2.5 µM. In addition, the IC50 in data set [1] (setting [4]) was 29.9 µM. In addition, the IC50 in data set [2] (setting [5]) was determined as 10.1 ± 0.7 µM. The IC50 in data set [2] (setting [6]) was 10.1 µM.
For `Cn1c(SCc2ccccc2)nc2cc3ccccc3cc2c1=O` [Compound 4, 2-(Benzylthio)-3-methylbenzo[g]quinazolin-4(3H)-one], the melting point is 150 to 152 °C. Moreover, in data set [1] (setting [3]), the IC50 amounted to 34.8 ± 3.1 µM. For the same compound, the IC50 in data set [1] (setting [4]) was 34.8 µM. Moreover, the IC50 in data set [2] (setting [5]) is 10.2 ± 1.1 µM. The IC50 in data set [2] (setting [6]) was 10.2 µM.
In the same order, the values of `Cc1cccc(CSc2nc3cc4ccccc4cc3c(=O)n2C)c1` [Compound 5, 3-Methyl-2-((3-methylbenzyl)thio)benzo[g]quinazolin-4(3H)-one] are 155 to 157 °C, 31.3 ± 3.1 µM, 31.3 µM, 10.6 ± 0.7 µM and 10.6 µM.
In the same order, the values of `Cn1c(SCc2ccc(Cl)cc2)nc2cc3ccccc3cc2c1=O` [Compound 6, 2-((4-Chlorobenzyl)thio)-3-methylbenzo[g]quinazolin-4(3H)-one] are 190 to 192 °C, 28.8 ± 2.6 µM, 28.8 µM, 10.7 ± 1.1 µM and 10.7 µM.
Turning to `Cn1c(SCc2ccc(C#N)cc2)nc2cc3ccccc3cc2c1=O` [Compound 7, 4-(((3-Methyl-4-oxo-3,4-dihydrobenzo[g]quinazolin-2-yl)thio)methyl)benzonitrile], the melting point lay in the range of 201 to 203 °C. Moreover, the IC50 in data set [1] (setting [3]) turned out to be 36 ± 3.1 µM. The IC50 in data set [1] (setting [4]) was 36 µM. Moreover, the IC50 in data set [2] (setting [5]) was 9.8 ± 1.2 µM. Besides, the IC50 in data set [2] (setting [6]) is 9.8 µM.
For the compound `COc1cccc(CSc2nc3cc4ccccc4cc3c(=O)n2C)c1` [Compound 8, 2-((3-Methoxybenzyl)thio)-3-methylbenzo[g]quinazolin-4(3H)-one], the IC50 in data set [1] (setting [3]) was 31.3 ± 3.1 µM; in data set [1] (setting [4]) it was 31.3 µM; in data set [2] (setting [5]) it was 10.9 ± 0.9 µM; in data set [2] (setting [6]) it was 10.9 µM.
Take `CCSc1nc2cc3ccccc3cc2c(=O)n1CC` [Compound 9, 3-Ethyl-2-(ethylthio)benzo[g]quinazolin-4(3H)-one]: the melting point is 107 to 109 °C. Besides, the IC50 in data set [1] (setting [3]) amounted to 31.7 ± 3.1 µM. For the same compound, in data set [1] (setting [4]), the IC50 is 31.7 µM. The IC50 in data set [2] (setting [5]) amounted to 10.2 ± 0.6 µM. In addition, in data set [2] (setting [6]), the IC50 is 10.2 µM.
With `Cn1c(NN)nc2cc3ccccc3cc2c1=O` [Compound 16], the IC50 in data set [1] (setting [3]) was 28.9 ± 2.3 µM; in data set [1] (setting [4]), 28.9 µM; in data set [2] (setting [5]) it was 10.4 ± 1.1 µM; in data set [2] (setting [6]), 10.4 µM.
For `CCn1c(NN)nc2cc3ccccc3cc2c1=O` [Compound 17] the same measures were 29.8 ± 2.1 µM, 29.8 µM, 10.1 ± 0.7 µM and 10.1 µM.
Take `COc1cccc2c1C(=O)c1c(O)c3c(c(O)c1C2=O)C[C@@](O)(C(=O)CO)C[C@@H]3O[C@H]1C[C@H](N)[C@H](O)[C@H](C)O1` [Doxorubicin, reference compound]: the figures for the IC50 in data set [1] (setting [3]) and in data set [2] (setting [5]) were 28.5 ± 1.9 µM and 10.3 ± 0.8 µM, respectively.
